Experimental findings from patent US20170015654A1, “PYRIDAZINE COMPOUND” (TAKEDA PHARMACEUTICAL COMPANY LIMITED, priority 2014, published 2017) are described below.

One experiment deals with T1, human SCD1 (Homo sapiens, UniProt O00767).
T1 construct: made in house; host or cells: High Five insect cells (baculovirus, pFastBac1/hSCD1); membrane fraction
T1 sequence (O00767 1-359): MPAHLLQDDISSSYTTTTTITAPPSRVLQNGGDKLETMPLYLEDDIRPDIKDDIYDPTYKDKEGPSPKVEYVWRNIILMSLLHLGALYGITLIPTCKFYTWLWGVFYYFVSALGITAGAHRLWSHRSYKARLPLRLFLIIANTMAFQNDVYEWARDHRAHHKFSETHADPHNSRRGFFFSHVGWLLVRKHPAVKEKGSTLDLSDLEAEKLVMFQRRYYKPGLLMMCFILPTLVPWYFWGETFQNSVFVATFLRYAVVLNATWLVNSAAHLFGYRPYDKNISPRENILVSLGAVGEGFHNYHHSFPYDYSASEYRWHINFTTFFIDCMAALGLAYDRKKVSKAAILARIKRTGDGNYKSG
Put plainly: Measurement of human SCD1 binding activity (inhibition of binding of radiolabeled compound Z). Particulars: 1 μM compound; human SCD1-expressing membrane fraction; compound Z radioligand; read-out: Rate of inhibition of SCD1 binding (%) at compound concentration of 1 μM. The protocol: Measurement of Human SCD1 Binding Activity Using (5-(6-(1′H-spiro[1-benzofuran-3,3′-pyrrolidin]-1′-yl)pyridazin-3-yl)-1,2,4-oxadiazol-3-yl) [^3H2]methanol
The SCD1 binding activity of the compound of the present invention was measured as the activity of inhibiting the binding of (5-(6-(1′H-spiro[1-benzofuran-3,3′-pyrrolidin]-1′-yl)pyridazin-3-yl)-1,2,4-oxadiazol-3-yl)[^3H2]methanol (radiolabeled form of the compound disclosed as a SCD inhibitor in Example 157 of International Publication No. WO2008/096746; in the present specification, also referred to as compound Z) to SCD1.
Specifically, first, Human liver cDNA library (Takara Bio Inc.) was cloned as a template by PCR using KOD-Plus-(Toyobo Co., Ltd.) DNA polymerase. The primers used were 5′-[…]-3′ and 5′-[…]-3′. The amplification fragment was temporarily transferred to a pCR Blunt II-TOPO vector using Zero Blunt PCR Cloning Kit (Life Technologies, Inc.) to obtain pCR Blunt II-TOPO/hSCD1. A fragment obtained by the cleavage of this pCR Blunt II-TOPO/hSCD1 with BamHI and NotI was transferred to pFastBac1 (Life Technologies, Inc.) to construct a recombinant plasmid pFastBac1/hSCD1 for hSCD1 insect cell expression systems.
Baculovirus was prepared using the pFastBac1/hSCD1 plasmid according to the protocol of Bac-to-Bac Baculovirus Expression System (Life Technologies, Inc.).
The insect cells for use in expression were High Five cells (Life Technologies, Inc.) subcultured in a PSFM-J1 medium (Wako Pure Chemical Industries, Ltd.) containing 5% FBS, 10 U/L heparin (Sigma-Aldrich Corp.) and 50 μg/mL gentamicin.
The High Five cells were inoculated at 0.8×10^6 cells/mL and cultured until the following day. When the cell density reached 2.0×10^6 cells/mL, Ammonium Iron(III) Sulfate 12-Water (Wako Pure Chemical Industries, Ltd.) was added thereto at a final concentration of 10 μM. The cells were further infected with the baculovirus and cultured for 3 days.
After the completion of the culture, the culture solution was centrifuged (4° C., 4,000 rpm, […]) and frozen at −80° C. to obtain hSCD1-expressing insect cells. Next, the frozen hSCD1-expressing insect cells were suspended in buffer A (50 mM Tris-HCl (pH 7.5) containing 250 mM sucrose and cOmplete Protease Inhibitor Cocktail Tablets (F. Hoffmann-La Roche, Ltd.)), and the cells were disrupted (4° C., 20,000 rpm, 20 sec×2) using a POLYTORON homogenizer (Central Scientific Commerce, Inc.).
This cell lysate was centrifuged (4° C., 850×g, […]), and the supernatant was further ultracentrifuged (4° C., 186,000×g, 60 min). The supernatant was discarded, and buffer A was added to the precipitate. The resultant was suspended using POLYTRON (4° C., 10,000 rpm, 10 sec×2) and passed through a 40-μm cell strainer to prepare a human SCD1-expressing membrane fraction (hereinafter, also simply referred to as human SCD1). The protein concentration was measured using BCA Protein Assay Kit (Thermo Fisher Scientific, Inc.) with BSA used as standards.
The obtained primary dilution was diluted 250-fold by the addition of an assay buffer (10 mM Tris-HCl, pH 7.5, 100 mM KCl, 10 mM NaF, 3 mM MgCl2, 0.005% Tween 20, 1 mM GSH) to obtain a secondary dilution. The human SCD1 diluted using an assay buffer was dispensed at 100 μL/well (containing 0.2 μg of the protein) to a polypropylene 96-well plate, and then, the secondary dilution of the compound was added thereto at 50 μL/well. Further, a solution of 12 nM compound Z diluted with an assay buffer was added thereto at 50 μL/well, and the plate was left standing at room temperature for 2 hours. Then, the contents in each well were transferred to each well of UniFilter-96 GF/C PEI coated plate (PerkinElmer, Inc.) wetted with a washing buffer, followed by washing five times with a washing buffer (10 mM Tris-HCl, pH 7.5). After drying of the filter plate, Microscint-O (PerkinElmer, Inc.) was added thereto at 25 μL/well, and the obtained radioactivity was measured using TopCount (PerkinElmer, Inc.). […]

The subject of experiment [1] is human large intestine cancer cell line HCT116. Briefly: Antitumor effect on human large intestine cancer cell line HCT116 cancer-bearing mice. Format: in vivo, mouse. Particulars: 10 mg/kg, 2 doses per day, orally for 14 days; HCT116 cancer-bearing BALB/c nude mice; tumor growth vs control group. How it is done: The compound of the present invention was evaluated for its antitumor effect on human large intestine cancer cell line HCT116 cancer-bearing mice by the following method.
The human large intestine cancer cell line HCT116 (purchased from ATCC (American Type Culture Collection)) was transplanted to each 6-week-old BALB/c female nude mouse (BALB/cA Jcl nu/nu: CLEA Japan Inc.) by the subcutaneous injection of 1.0×10^6 cells. After the transplantation, successfully engrafted tumor was observed, and the tumor size was measured 10 to 14 days after the transplantation. The tumor volume was calculated according to the following expression:
Tumor volume=Major axis×Minor axis×Minor axis×(½)
Individuals in which the volume of the engrafted tumor reached approximately 150 mm^3 were selected and used in the experiment as groups each involving 5 to 8 individuals. Each test compound was suspended in a 0.5% methylcellulose solution and orally administered to each individual for 14 days using the dose and the number of doses shown in the table below. Finally, in order to measure drug effects, the tumor volume was calculated from the tumor sizes at the day before the start of the administration and at the final day of the administration, and tumor growth in the test compound administration group compared with a control administration group given only a 0.5% methylcellulose solution was calculated as T/C according to the following expression:
T/C (%)=(Tumor volume after the completion of the administration of the test compound administration group−Tumor volume at the day before the start of the administration of the test compound administration group)/(Tumor volume after the completion of the administration of the control administration group−Tumor volume at the day before the start of the administration of the control administration group)×100

With `N#CC1(c2ccc(C(F)(F)F)cc2)CCN(c2ccc(-c3nc(CO)no3)nn2)CC1` [Example 38, 1-(6-(3-(Hydroxymethyl)-1,2,4-oxadiazol-5-yl)pyridazin-3-yl)-4-(4-(trifluoromethyl)phenyl)piperidine-4-carbonitrile], on human SCD1, the inhibition at 1 µM is 95%. The “T/C (%)” value in experiment [1] amounted to 85.8%.
